From patent US20130040914A1, “PRODRUGS OF AN HIV REVERSE TRANSCRIPTASE INHIBITOR” (priority 2010, published 2013)
Converted amounts (≈) assume the structure as drawn.

Experiments:
[1] = Water solubility at room temperature (excess solid stirred in deionized water, HPLC); conditions: thermodynamic from solid; for solubility at 24 h: deionized water
Experimental: A stir bar was then placed in the tube and the tube placed on a multi-position stirrer plate. […] The solubility of each compound was determined via HPLC, wherein a portion of the supernatant was removed from the tube, diluted with ACN:water (50:50 by volume) as necessary to achieve a suitable concentration for analysis, and then analyzed by HPLC against a standard (=a solution of the K salt of Example 1 in ACN:water 50:50 by volume). One determination was made for each compound.
HPLC: column=Agilent Zorbax Eclipse (4.6×50 mm, 1.8 micron); mobile phase=0.1% H3PO4:ACN; gradient=90% to 10% H3PO4; flow rate=1.5 mL/minute; column temperature=45° C.; injection volume=25 μL; UV sampling with detection wavelength=210 nm; run time=15 minutes.

[2] = molecular target: HIV reverse transcriptase (Human immunodeficiency virus type 1 group M subtype B, UniProt P03366); conditions: qualitative statement in Background; cited from earlier work
[3] = Aqueous solubility (background statement); type: physicochemical; conditions: qualitative statement in Background
[4] = Oral bioavailability in pharmacokinetic studies in animals; type: in vivo; conditions: qualitative

SMILES	solubility at 24 h [1] [µg/mL]	non-nucleoside reverse transcriptase inhibition [2]	aqueous solubility [3]	oral bioavailability [4]	solubility at 4 h [1] [µg/mL]
N#Cc1cc(Cl)cc(Oc2c(C(F)(F)F)ccn(Cc3n[nH]c4ncccc34)c2=O)c1 [Compound A, 3-chloro-5-{[2-oxo-1-(1H-pyrazolo[3,4-b]pyridin-3-ylmethyl)-4-(trifluoromethyl)-1,2-dihydropyridin-3-yl]oxy}benzonitrile]	0.2 (≈ 0.449 µM)	potent	relatively low	relatively low	
N#Cc1cc(Cl)cc(Oc2c(Cl)ccn(Cc3n[nH]c4ncccc34)c2=O)c1 [Compound B, 3-chloro-5-{[4-chloro-2-oxo-1-(1H-pyrazolo[3,4-b]pyridin-3-ylmethyl)-1,2-dihydropyridin-3-yl]oxy}benzonitrile]		potent	relatively low		
N#Cc1cc(Cl)cc(Oc2c(C(F)(F)F)ccn(Cc3nn(COP(=O)([O-])O)c4ncccc34)c2=O)c1.O.[K+] [Example 1, Potassium (3-{[3-(3-chloro-5-cyanophenoxy)-2-oxo-4-(trifluoromethyl)pyridin-1(2H)-yl]methyl}-1H-pyrazolo[3,4-b]pyridin-1-yl)methyl hydrogen phosphate monohydrate]					12000
CN(CCN)C(=O)n1nc(Cn2ccc(C(F)(F)F)c(Oc3cc(Cl)cc(C#N)c3)c2=O)c2cccnc21.O=S(=O)(O)c1ccccc1 [Example 9, N-(2-Aminoethyl)-3-{[3-(3-chloro-5-cyanophenoxy)-2-oxo-4-(trifluoromethyl)pyridin-1(2H)-yl]methyl}-N-methyl-1H-pyrazolo[3,4-b]pyridine-1-carboxamide benzenesulfonate]	1100				
